These results are taken from ChEMBL document CHEMBL3784991, “Design, synthesis and evaluation of novel HIV-1 NNRTIs with dual structural conformations targeting the entrance channel of the NNRTI binding pocket” (Eur J Med Chem, 2016).

The structures appear in SMILES notation. Where a name gives a salt, the structure may show the parent alone.

A short description of series [1]: Selectivity index, ratio of CC50 for mock infected human MT4 cells to EC50 for HIV2 ROD infected in human MT4 cells. To be noted: read-out: Ratio CC50/EC50. Format: toxicity, cell-based.
In series [2] the test system is Human immunodeficiency virus 2. In words: Antiviral activity against HIV2 ROD infected in human MT4 cells assessed as cell viability after 4 days by MTT assay. Format: functional, organism-based. The note with it: Human immunodeficiency virus 2, ISOLATE ROD, MT4, 96 h. Background: Tetrazolium assays rely on reduction of a dye to a coloured formazan, in cell work by metabolically active cells.

Series [3] has as its system Human immunodeficiency virus 1. In words: Antiviral activity against wild type HIV1 3B infected in human MT4 cells assessed as cell viability after 4 days by MTT assay. The series is classed as functional, organism-based. To be noted: Human immunodeficiency virus 1, 3B, MT4, 96 h.
The nature of series [4]: Cytotoxicity against mock infected human MT4 cells after 4 days by MTT assay. The series is classed as cell-based.
Series [5] in a line: Selectivity index, ratio of CC50 for mock infected human MT4 cells to EC50 for HIV1 3B infected in human MT4 cells. To be noted: read-out: Ratio CC50/EC50. The series is classed as toxicity, cell-based.
Series [6] deals with Human immunodeficiency virus type 1 reverse transcriptase (Human immunodeficiency virus 1, UniProt Q72547). Briefly: Inhibition of wild type HIV1 Reverse transcriptase assessed as reduction of biotin deoxyuridine triphosphate incorporation into the wild type HIV1 reverse transcriptase after 1 hr by ELISA. In general terms: In an ELISA, binding on a coated surface is turned into a signal by an enzyme label.

Series [7] deals with Human immunodeficiency virus 1. In words: Potency index, ratio of nevirapine EC50 to compound EC50 for HIV1 3B infected in human MT4 cells. The series is classed as functional.
Series [8] relates to Human immunodeficiency virus 1. In words: Antiviral activity against HIV1 RES056 harboring reverse transcriptase K103N/[…] double mutant infected in human MT4 cells assessed as cell viability after 4 days by MTT assay. The note with it: Human immunodeficiency virus 1, RES056, MT4, 96 h. The series is classed as functional, organism-based.
Series [9] in a line: Selectivity index, ratio of CC50 for mock infected human MT4 cells to EC50 for HIV1 RES056 harboring reverse transcriptase K103N/[…] double mutant infected in human MT4 cells. Format: toxicity, cell-based. The note with it: read-out: Ratio CC50/EC50.

Regarding `Nc1ccn([C@H]2CS[C@@H](CO)O2)c(=O)n1`, the selectivity ratio in series [1] is greater than 9; in series [5] it was greater than 34. Also, the EC50 turned out to be 9.9 µM in [2] and 2.53 µM in series [3]. In [4], this compound gave a CC50 at 96 h greater than 87.2 µM.
With `Cc1ccc(Nc2nc(Nc3ccc(C#N)cc3)cc(Oc3c(C)cc(C#N)cc3C)n2)cc1`, the selectivity ratio in [1] and in series [5] was less than 1 each time. Further, the EC50 in series [2] and in series [3] was greater than 8.53 µM in each case. In series [4], this compound gave a CC50 at 96 h of 8.53 µM.
On to `Cc1ccc(Nc2nc(Nc3ccc(Cl)cc3)cc(Oc3c(C)cc(C)cc3C)n2)cc1`, for which the selectivity ratio in series [1] and in series [5] was less than 1 in each case. Also, the EC50 in [2] and in [3] was greater than 48.2 µM each time. Also, in [4], the CC50 at 96 h came out at 48.2 µM.
Take `Cc1ccc(Nc2nc(Nc3cccc(C)c3)cc(Oc3c(C)cc(C)cc3C)n2)cc1`: the selectivity ratio in [1] and in series [5] was less than 1 each time. For the same compound, the EC50 in [2] and in series [3] was greater than 51 µM each time. In series [4], this compound yielded a CC50 at 96 h of 51 µM.
For `Cc1cc(C#N)cc(C)c1Oc1cc(Nc2ccc(C#N)cc2)nc(Nc2cccc(C#N)c2)n1`, the selectivity ratio in [1] and in series [5] was less than 1 in each case. The EC50 in series [2] and in series [3] was greater than 2.73 µM each time. This compound also returned a CC50 at 96 h in series [4] of 2.73 µM.
Consider `Cc1cc(C)c(Oc2cc(Nc3ccc(C#N)cc3)nc(Nc3cccc(C#N)c3)n2)c(C)c1`, for which the selectivity ratio in series [1] and in series [5] was less than 1 each time. Also, the EC50 in series [2] and in series [3] was greater than 5.38 µM each time. Besides, the CC50 at 96 h in [4] worked out at 5.38 µM.
Consider `Cc1ccc(Nc2nc(Nc3ccc(C#N)cc3)cc(Oc3c(C)cc(C)cc3C)n2)cc1`, for which the selectivity ratio in series [1] and in [5] was less than 1 throughout. In addition, the EC50 in [2] and in series [3] was greater than 27.1 µM throughout. This compound had a CC50 at 96 h in [4] of 27.1 µM.
Take `Cc1cc(C#N)cc(C)c1Oc1cc(Nc2ccc(Cl)cc2)nc(Nc2cccc(C#N)c2)n1`: the selectivity ratio in [1] and in series [5] was less than 1 throughout. The EC50 in series [2] and in series [3] was greater than 3.15 µM each time. In series [4], this compound came in with a CC50 at 96 h of 3.15 µM.
Turning to `Cc1cccc(Nc2cc(Oc3c(C)cc(C#N)cc3C)nc(Nc3cccc(C#N)c3)n2)c1`, the selectivity ratio in series [1] and in series [5] was less than 1 throughout. In addition, the EC50 in series [2] and in series [3] was greater than 2.89 µM throughout. This compound registered a CC50 at 96 h in series [4] of 2.89 µM.
With `Cc1cc(C#N)cc(C)c1Oc1cc(Nc2ccc(C#N)cc2)nc(Nc2ccc(C#N)cc2)n1`, the selectivity ratio in [1] is less than 1; in series [5], 117; in series [9] it was 2. The EC50 was greater than 13 µM in [2], 0.11 µM in series [3] and 2.18 µM in series [8]. Also, in [4], the CC50 at 96 h worked out at 13 µM. In series [6], the IC50 is 0.0727 µM. In series [7], the “Ratio EC50” value came out at 2.
On to `Cc1ccc(Nc2nc(Nc3cccc(C)c3)cc(Oc3c(C)cc(C#N)cc3C)n2)cc1`, for which the selectivity ratio in [1] and in series [5] was less than 1 throughout. The EC50 in [2] and in [3] was greater than 17.4 µM throughout. The compound also yielded a CC50 at 96 h in series [4] of 17.3 µM.
Regarding `Cc1cccc(Nc2cc(Oc3c(C)cc(C)cc3C)nc(Nc3cccc(C#N)c3)n2)c1`, the selectivity ratio in series [1] and in series [5] was less than 1 throughout. The EC50 in series [2] and in [3] was greater than 25.8 µM each time. Moreover, the CC50 at 96 h in series [4] worked out at 25.8 µM.
Regarding `Cc1cc(C#N)cc(C)c1Oc1cc(Nc2ccc(Cl)cc2)nc(Nc2ccc(C#N)cc2)n1`, the values for the selectivity ratio in series [1], in series [5] and in series [9] were less than 1, 4 and less than 1, respectively. Besides, the figures for the EC50 in [2], in series [3] and in [8] were greater than 3.28 µM, 0.79 µM and greater than 3.28 µM, respectively. Further, in [4], it took 3.28 µM to reach half-maximal cytotoxicity (CC50 at 96 h).
As for `Cc1cc(C)c(Oc2cc(Nc3ccc(Cl)cc3)nc(Nc3ccc(C#N)cc3)n2)c(C)c1`, the selectivity ratio was less than 1 in series [1], no more than 4 in series [5] and less than 1 in series [9]. In addition, the EC50 in series [2] was greater than 6.67 µM; in series [3] it was no less than 1.62 µM; in series [8], greater than 6.67 µM. In addition, the CC50 at 96 h in series [4] amounted to 6.68 µM.
On to `Cc1cc(C)c(Oc2cc(Nc3ccc(Cl)cc3)nc(Nc3cccc(C#N)c3)n2)c(C)c1`, for which the selectivity ratio in [1] and in [5] was less than 1 throughout. The EC50 in series [2] and in [3] was greater than 12.6 µM throughout. For the same compound, half-maximal cytotoxicity in series [4] (CC50 at 96 h) was put at 12 µM.
As for `Cc1ccc(Nc2nc(Nc3ccc(Cl)cc3)cc(Oc3c(C)cc(C#N)cc3C)n2)cc1`, the figures for the selectivity ratio in series [1], in series [5] and in series [9] were 1, greater than 9 and 1, respectively. Also, the EC50 in series [2] was greater than 274 µM; in series [3], 31.4 µM; in series [8], greater than 274 µM. In series [4], the CC50 at 96 h is greater than 274 µM.
For `Cc1cc(C)c(Oc2cc(Nc3ccc(C#N)cc3)nc(Nc3ccc(C#N)cc3)n2)c(C)c1`, the figures for the selectivity ratio in [1], in [5] and in [9] were less than 1, 8 and less than 1, respectively. For the same compound, the EC50 in [2] is greater than 5.98 µM; in series [3], 0.78 µM; in series [8] it was greater than 5.98 µM. Moreover, in series [4], the CC50 at 96 h amounted to 5.98 µM.
In the case of `Cc1cccc(Nc2cc(Oc3c(C)cc(C)cc3C)nc(Nc3ccc(C#N)cc3)n2)c1`, the selectivity ratio in [1], in series [5] and in series [9] was less than 1 in each case. For the same compound, the EC50 in series [2], in [3] and in series [8] was greater than 24.1 µM each time. Also, it took 24.1 µM to reach half-maximal cytotoxicity in series [4] (CC50 at 96 h).
As to `Cc1cccc(Nc2cc(Oc3c(C)cc(C#N)cc3C)nc(Nc3ccc(C#N)cc3)n2)c1`, the selectivity ratio in series [1] is less than 1; in [5], 4; in [9], less than 1. For the same compound, the EC50 is greater than 2.96 µM in [2], 0.82 µM in series [3] and greater than 2.96 µM in series [8]. Besides, the midpoint of cytotoxicity in series [4], the CC50 at 96 h, lay at 2.96 µM.
For `CC(C)Nc1cccnc1N1CCN(C(=O)c2cc3cc(NS(C)(=O)=O)ccc3[nH]2)CC1` [DELAVIRDINE MESYLATE], the EC50 was 0.027 µM in series [3] and greater than 28.2 µM in [8]. Moreover, in series [4], the 50% cytotoxic concentration (CC50) at 96 h worked out at 28.2 µM. Further, the results for the selectivity ratio in series [5] and in [9] were 1080 and less than 1, respectively.
On to `O=c1[nH]cnc2c1ncn2[C@H]1CC[C@@H](CO)O1` [DIDANOSINE], for which the selectivity ratio in series [1] and in [5] was greater than 3 throughout. Further, the EC50 worked out at 82.1 µM in series [2] and 76 µM in series [3]. The same compound had a CC50 at 96 h in [4] greater than 212 µM.
As to `O=C1Nc2ccc(Cl)cc2[C@@](C#CC2CC2)(C(F)(F)F)O1` [EFAVIRENZ], the CC50 at 96 h in [4] is greater than 6.34 µM. Further, the EC50 in [8] amounted to 0.225 µM. The results for the selectivity ratio in series [5] and in series [9] were greater than 1210 and greater than 28, respectively.
For the compound `Cc1cc(C#N)cc(C)c1Oc1nc(Nc2ccc(C#N)cc2)nc(N)c1Br` [ETRAVIRINE], the EC50 in [3] was 0.0039 µM; in series [8], 0.034 µM. In [4], this compound came in with a CC50 at 96 h of 2.16 µM.
For `Cc1ccnc2c1NC(=O)c1cccnc1N2C1CC1` [NEVIRAPINE], the CC50 at 96 h in [4] is greater than 15 µM. Besides, in series [8], the EC50 was greater than 15 µM.
In the case of `Cc1cn([C@H]2C[C@H](N=[N+]=[N-])[C@@H](CO)O2)c(=O)[nH]c1=O` [ZIDOVUDINE], the selectivity ratio is greater than 925 in series [1], greater than 1000 in series [5] and greater than 448 in [9]. Besides, the EC50 worked out at 0.0082 µM in series [2] and 0.017 µM in series [8]. Further, the CC50 at 96 h in series [4] was greater than 7.48 µM.

What is called EC50 is the concentration needed to bring the measured effect to its halfway point. By CC50 is commonly meant the concentration giving 50% cytotoxicity. Low readings indicate greater toxicity to the cells, high ones lower toxicity to the cells. A word on the IC50: it is the concentration needed to halve the response being measured.
